row,Compound,melting point [°C]
1,Cc1cc(C2=C(C=O)C(C)(C)CC(C)(C)C2)ccc1F,50.5 to 51.5
2,COc1ccc(N2CCN(c3c(C)c(C)c4c(c3C)C(C)(O)C(C)(C)O4)CC2)cc1 (stereo not given),139 to 141
3,COc1ccccc1N1CCN(CCn2c(=O)[nH]c3sc(Cl)cc3c2=O)CC1,228 to 230
4,C#Cc1cccc(Nc2nc(Nc3cccc(C#C)c3)nc(-c3ccccc3)n2)c1,210
5,O=C1Nc2ccc(Cl)cc2CN2CCCC12 (stereo not given),97 to 99
6,CCCCOc1cc2c(Cl)c(C#N)cnc2cc1OCCOC,128 to 130
7,COc1ccc(-c2[nH]cnc2-c2cc(OC)c(O)c(OC)c2)cc1F,125 to 127
8,CCc1c(-c2ccc(OCc3ccccc3)cc2)c2c(COC)cc3c(OCc4ccccc4)ccc1n32,127 to 130
9,Cn1c(=O)c2c(-c3nc(C4CC4)no3)ncn2c2cccnc21,266 to 269
10,CN1CCN(c2cccc3ccc(-c4cccc(F)c4)cc23)CC1,116
11,COC(=O)c1c(C)nc2c(c1N)c1ccccc1n2C,98 to 100
12,CCCN1CCc2c(cccc2NC(=O)c2ccc(OC)cc2)C1,162 to 164
13,CON=C1CN(c2c(F)cc3c(=O)c(C(=O)O)cn(C4CC4)c3c2OC)CC12CC2,219 to 221
14,CCOC(=O)CCCCC(=O)c1c(C)cc(C)c(C)c1O,72 to 73
15,CC1(C)Oc2cc3nonc3cc2C(NC(=O)CCl)C1O (stereo not given),232 to 234
16,CCOc1cc(N2CCOCC2)c(OCC)cc1N=NNN1CCOCC1,137 to 139

row,Compound,melting point [°C]
1,CCC1C(=O)Nc2cc3[nH]c(-c4ccc(NC(C)=O)cc4OC)nc3cc21 (stereo not given),245 to 249
2,CC(C)(C)OC(=O)N1CCC(Oc2ccccc2C(C)(C)C)C1 (stereo not given),81 to 82
3,CCCCCCCCCCCCCCCC(=O)Nc1cccc(C(=O)O)c1C,163 to 165
4,Nc1nn(CCN2CCCCC2)cc1-c1ccccc1,96
5,COC(=O)c1sc(OC)cc1OP(=O)(OC)OC,35
6,c1ccc(Oc2ccc(NC3=NN(c4ccccc4)CC3)cc2)cc1,114 to 116
7,Cc1ccc2c(c1)C(=NNC(=N)N)CC2,> 250
8,CCC(=O)CC(C(C(=O)CC)c1ccc([N+](=O)[O-])cc1)[N+](=O)[O-] (stereo not given),61.5 to 65.6
9,Fc1ccc2c(c1)NCc1ccccc1O2,94
10,CN(C)C(=O)C1=C(C(=O)Nc2cc(OC3CCCC3)c(Cl)cc2F)CCCC1,136 to 138
11,Cc1cccc2c1C(=O)N1CC[C@H]1c1c(C(=O)OC(C)(C)C)ncn1-2,191 to 192
12,O=[N+]([O-])c1ccccc1Sc1ccncc1,119 to 122
13,COc1ccc(CCNC(=O)C(=O)NCCCCCCN)cc1OC1CCCC1,105 to 110
14,CCCCCCCCC(SCCCCCC)C(=O)Nc1c(SC)cc(SC)c2ncccc12 (stereo not given),91 to 93
15,CC(Cc1cccnc1)NC(=O)[C@@H]1C[C@H](C)CC[C@H]1C(C)C (stereo not given in full),108 to 110
16,Cc1c(C)c(N2CCN(c3ccc(F)cc3)CC2)c(C)c2c1OC(C)C2 (stereo not given),137 to 138

# Continued, values first:
row,melting point [°C],Compound
1,162,Nc1ncnc2c1c(-c1ccc(Oc3ccccc3)cc1)c(Br)n2C1CCCC1
2,130 to 131,CCOC(=O)COc1ccc2c(-c3ccccc3F)noc2c1Br
3,191 to 192,CS(=O)(=O)Nc1ccc(OC2CCN(c3ccncc3)CC2)cc1
4,196 to 198,O=C(Nc1ccc(C(F)(F)F)cc1)NC1CCOCC1
5,184 to 185,COc1cc(Cl)cc(OC(=O)c2cc3cc(CCl)ccc3oc2=O)c1
6,185 to 186,O=c1oc(-c2ccc(Cl)c(Cl)c2)cc(O)c1SCc1ccccc1
7,110 to 111,Cc1c(Br)cc(C(C)(CO)c2ccc(C(C)C)cc2)c(O)c1C (stereo not given)
8,216 to 217,Cc1nc(NC(=O)c2ccccc2)sc1C(=O)NCc1cccc(F)c1
9,156 to 170,O=c1[nH]nc2ccc(NCCCN3CCC(OC(c4ccccc4)c4ccccc4)CC3)nn12
10,304,O=C(Nc1ncco1)c1cnc2c(C(F)(F)F)cccc2c1O
11,199 to 200,C[C@H]1N(C(=O)c2ccc(C(F)(F)F)cc2)CC(O)O[C@@]1(Cn1cncn1)c1ccc(Cl)cc1Cl (relative stereo)
12,138 to 140,O=C1N[C@H](Cc2ccccc2C(F)(F)F)[C@H](c2ccc(F)cc2)O1 (racemic)
13,50 to 60,COc1ccc(C(O)c2cccc(OCc3ccccc3)c2)cc1 (stereo not given)
14,122 to 125,CCOC(=O)CSc1cc(Cl)nc(NCc2ccc(Cl)cc2)n1
15,137,CC(=O)OC1CSC(Oc2cccc(-c3ccncc3)n2)C(OC(C)=O)C1OC(C)=O (stereo not given)
16,151,O=C(O)Cc1ccc(C2CC(=O)c3ccccc32)cc1 (stereo not given)
17,101 to 105,CC(C)(C)CC(C)(C)c1cc(N=Nc2ccc(C(F)(F)F)cc2[N+](=O)[O-])c(O)c(C(C)(C)c2ccccc2)c1
18,140 to 141,COC12CC(C)(C)C(O1)C(OC(=O)c1ccc([N+](=O)[O-])cc1)C=C2C (stereo not given)

# Source: a melting point compilation (Tetko et al.; mined from patent text by program, amines drawn as free bases though some values may be those of a salt)
